Molecules are shown by their SMILES.

Format in all cases: in vivo
The subject of one experiment is Barnyard Grass. The experiment is described as follows: Pre-emergent herbicidal evaluation on Barnyard Grass (field plots, spray). The protocol:
(§1) Test compositions were prepared by dilution of a 65% water-soluble granule (65 WG) formulation of 2,4-dinitro-N^3,N^3-dipropyl-6-(trifluoromethyl)-1,3-benzenediamine in a spray tank that provided the appropriate application rate of 2,4-dinitro-N^3,N^3-dipropyl-6-(trifluoromethyl)-1,3-benzenediamine. Test compositions were also prepared by dilution of a 80% wettable powder (80 WP) formulation of N-[2,4-dichloro-5-[4-(difluoromethyl)-4,5-dihydro-3-methyl-5-oxo-1H-1,2,4-triazol-1-yl]phenyl]methanesulfonamide in a spray tank that provided the appropriate application rate of N-[2,4-dichloro-5-[4-(difluoromethyl)-4,5-dihydro-3-methyl-5-oxo-1H-1,2,4-triazol-1-yl]phenyl]methanesulfonamide. In addition, test compositions were prepared containing mixtures of a 65% water-soluble granule (65 WG) formulation of 2,4-dinitro-N^3,N^3-dipropyl-6-(trifluoromethyl)-1,3-benzenediamine and a 80% wettable powder (80 WP) formulation of N-[2,4-dichloro-5-[4-(difluoromethyl)-4,5-dihydro-3-methyl-5-oxo-1H-1,2,4-triazol-1-yl]phenyl]methanesulfonamide with water that provided the specified rates of the two herbicides.
(§2) The application of each test composition was performed with pressurized back-pack sprayers, calibrated to spray between 10 and 15 gallons per acre.
(§3) The experimental design used randomized plots with one pre-emergent treatment either the day of planting or the day after planting and four to eight replications per test trial. The size of each experimental plot was 6 feet by 30 feet.
Percent control of the weed (Barnyard Grass) was evaluated and averaged in each experimental plot at 14 days after treatment (DAT) of each test rate.
(§4) The results, shown as an average of the replications, were compared with results observed in untreated control plots in the same trials.

A further experiment has as its system Green Foxtail. Nature of the experiment: Pre-emergent herbicidal evaluation on Green Foxtail (field plots, spray). The protocol: as §1, §2, §3
Percent control of the weed (Green Foxtail) was evaluated and averaged in each experimental plot at 14 days after treatment (DAT) of each test rate.
as §4

For a further experiment, the system named is Annual Blue Grass. The experiment is described as follows: Pre-emergent herbicidal evaluation on Annual Blue Grass (field plots, spray). The protocol:
as §1, §2, §3
Percent control of the weed (Annual Blue Grass) was evaluated and averaged in each experimental plot at 14 days after treatment (DAT) of each test rate.
as §4

The next experiment concerns Goose Grass. Nature of the experiment: Pre-emergent herbicidal evaluation on Goose Grass (field plots, spray). The protocol:
as §1, §2, §3
Percent control of the weed (Goose Grass) was evaluated and averaged in each experimental plot at 14 days after treatment (DAT) of each test rate.
as §4

Another experiment relates to Johnson Grass. Nature of the experiment: Pre-emergent herbicidal evaluation on Johnson Grass (field plots, spray). As to the method: as §1, §2, §3
Percent control of the weed (Johnson Grass) was evaluated and averaged in each experimental plot at 14 days after treatment (DAT) of each test rate.
as §4

The test system of the next experiment is Spurge. Nature of the experiment: Pre-emergent herbicidal evaluation on Spurge (field plots, granular fertilizer compositions). As to the method:
Test compositions were prepared of i) a granular fertilizer and 2,4-dinitro-N^3,N^3-dipropyl-6-(trifluoromethyl)-1,3-benzenediamine, and ii) a granular fertilizer and N-[2,4-dichloro-5-[4-(difluoromethyl)-4,5-dihydro-3-methyl-5-oxo-1H-1,2,4-triazol-1-yl]phenyl]methanesulfonamide. The test compositions were prepared to provide the desired application rates of 2,4-dinitro-N^3,N^3-dipropyl-6-(trifluoromethyl)-1,3-benzenediamine and N-[2,4-dichloro-5-[4-(difluoromethyl)-4,5-dihydro-3-methyl-5-oxo-1H-1,2,4-triazol-1-yl]phenyl]methanesulfonamide. In addition, test compositions were prepared containing mixtures of 2,4-dinitro-N^3,N^3-dipropyl-6-(trifluoromethyl)-1,3-benzenediamine and N-[2,4-dichloro-5-[4-(difluoromethyl)-4,5-dihydro-3-methyl-5-oxo-1H-1,2,4-triazol-1-yl]phenyl]methanesulfonamide with granular fertilizer that provided the specified rates of the two herbicides.
The experimental design used randomized plots with one pre-emergent treatment either the day of planting or the day after planting and three to four replications per test trial. The size of each experimental plot was 6 feet by 30 feet.
Percent control of the weed (Spurge) was evaluated and averaged in each experimental plot at 70 days after treatment (DAT) of each test rate.
as §4

For `Cc1nn(-c2cc(NS(C)(=O)=O)c(Cl)cc2Cl)c(=O)n1C(F)F` [A, N-[2,4-dichloro-5-[4-(difluoromethyl)-4,5-dihydro-3-methyl-5-oxo-1H-1,2,4-triazol-1-yl]phenyl]methanesulfonamide], the “Control @ 14 DAT” value with Barnyard Grass (0.06 lb AI/Acre) turned out to be 55%; with Barnyard Grass (0.12 lb AI/Acre), 80%; in the experiment on Barnyard Grass (0.19 lb AI/Acre) it was 88%; with Barnyard Grass (0.25 lb AI/Acre), 93%; in the experiment with Green Foxtail (0.06 lb AI/Acre), 62%; with Green Foxtail (0.12 lb AI/Acre) it was 76%. Moreover, the “Control @ 14 DAT” value in the experiment on Green Foxtail (0.19 lb AI/Acre) stood at 93%; in the experiment with Green Foxtail (0.25 lb AI/Acre), 97%; with Annual Blue Grass (0.06 lb AI/Acre) it was 37%; in the experiment with Annual Blue Grass (0.12 lb AI/Acre), 47%; with Annual Blue Grass (0.19 lb AI/Acre) it was 62%; in the experiment with Annual Blue Grass (0.25 lb AI/Acre), 60%. Also, the “Control @ 14 DAT” value was determined as 49% in the experiment on Goose Grass (0.06 lb AI/Acre); 69% in the experiment with Goose Grass (0.12 lb AI/Acre); 77% in the experiment on Goose Grass (0.19 lb AI/Acre); 79% in the experiment on Goose Grass (0.25 lb AI/Acre); 42% in the experiment with Johnson Grass (0.06 lb AI/Acre); 67% with Johnson Grass (0.12 lb AI/Acre). The results for the “Control @ 14 DAT” value in the experiment with Johnson Grass (0.19 lb AI/Acre) and in the experiment with Johnson Grass (0.25 lb AI/Acre) were 65% and 70%, respectively. The “Control @ 70 DAT” value turned out to be 0% in the experiment on Spurge (0.125 lb AI/Acre), 6% in the experiment on Spurge (0.250 lb AI/Acre) and 6% in the experiment on Spurge (0.375 lb AI/Acre).
Regarding `CCCN(CCC)c1c([N+](=O)[O-])cc(C(F)(F)F)c(N)c1[N+](=O)[O-]` [B, 2,4-dinitro-N^3,N^3-dipropyl-6-(trifluoromethyl)-1,3-benzenediamine], the “Control @ 14 DAT” value with Barnyard Grass (0.12 lb AI/Acre) came to 63%; in the experiment on Barnyard Grass (0.25 lb AI/Acre), 69%; in the experiment with Barnyard Grass (0.50 lb AI/Acre), 86%; in the experiment on Green Foxtail (0.12 lb AI/Acre), 87%; in the experiment on Green Foxtail (0.25 lb AI/Acre), 91%; in the experiment with Green Foxtail (0.50 lb AI/Acre), 95%. Further, the “Control @ 14 DAT” value in the experiment with Annual Blue Grass (0.12 lb AI/Acre) is 45%; with Annual Blue Grass (0.25 lb AI/Acre), 38%; in the experiment with Annual Blue Grass (0.50 lb AI/Acre), 58%; with Goose Grass (0.12 lb AI/Acre) it was 76%; in the experiment on Goose Grass (0.25 lb AI/Acre), 99%; with Goose Grass (0.50 lb AI/Acre) it was 100%. The “Control @ 14 DAT” value in the experiment on Johnson Grass (0.12 lb AI/Acre) is recorded as 42%; with Johnson Grass (0.25 lb AI/Acre), 48%; in the experiment on Johnson Grass (0.50 lb AI/Acre), 77%. In addition, the results for the “Control @ 70 DAT” value in the experiment with Spurge (0.50 lb AI/Acre), with Spurge (0.75 lb AI/Acre) and in the experiment on Spurge (1.00 lb AI/Acre) were 42%, 70% and 60%, respectively.
